{
  "source": "patent US8697739B2",
  "about": "“Bicyclic acetyl-CoA carboxylase inhibitors and uses thereof” (Novartis AG, priority 2010, dated 2014)",
  "note": "pIC50: −log10 of the molar value.",
  "data": [
    {"molecular_target": "T1, human acetyl-CoA carboxylase 2 (ACC2) (Homo sapiens, UniProt O00763)", "T1 construct": "The cDNA encoding amino acids 144 to 2458 of human acetyl-CoA carboxylase 2; made in house; host or cells: Sf9 insect cells (baculovirus, pFastBac1)", "T1 sequence (O00763 144-2458)": "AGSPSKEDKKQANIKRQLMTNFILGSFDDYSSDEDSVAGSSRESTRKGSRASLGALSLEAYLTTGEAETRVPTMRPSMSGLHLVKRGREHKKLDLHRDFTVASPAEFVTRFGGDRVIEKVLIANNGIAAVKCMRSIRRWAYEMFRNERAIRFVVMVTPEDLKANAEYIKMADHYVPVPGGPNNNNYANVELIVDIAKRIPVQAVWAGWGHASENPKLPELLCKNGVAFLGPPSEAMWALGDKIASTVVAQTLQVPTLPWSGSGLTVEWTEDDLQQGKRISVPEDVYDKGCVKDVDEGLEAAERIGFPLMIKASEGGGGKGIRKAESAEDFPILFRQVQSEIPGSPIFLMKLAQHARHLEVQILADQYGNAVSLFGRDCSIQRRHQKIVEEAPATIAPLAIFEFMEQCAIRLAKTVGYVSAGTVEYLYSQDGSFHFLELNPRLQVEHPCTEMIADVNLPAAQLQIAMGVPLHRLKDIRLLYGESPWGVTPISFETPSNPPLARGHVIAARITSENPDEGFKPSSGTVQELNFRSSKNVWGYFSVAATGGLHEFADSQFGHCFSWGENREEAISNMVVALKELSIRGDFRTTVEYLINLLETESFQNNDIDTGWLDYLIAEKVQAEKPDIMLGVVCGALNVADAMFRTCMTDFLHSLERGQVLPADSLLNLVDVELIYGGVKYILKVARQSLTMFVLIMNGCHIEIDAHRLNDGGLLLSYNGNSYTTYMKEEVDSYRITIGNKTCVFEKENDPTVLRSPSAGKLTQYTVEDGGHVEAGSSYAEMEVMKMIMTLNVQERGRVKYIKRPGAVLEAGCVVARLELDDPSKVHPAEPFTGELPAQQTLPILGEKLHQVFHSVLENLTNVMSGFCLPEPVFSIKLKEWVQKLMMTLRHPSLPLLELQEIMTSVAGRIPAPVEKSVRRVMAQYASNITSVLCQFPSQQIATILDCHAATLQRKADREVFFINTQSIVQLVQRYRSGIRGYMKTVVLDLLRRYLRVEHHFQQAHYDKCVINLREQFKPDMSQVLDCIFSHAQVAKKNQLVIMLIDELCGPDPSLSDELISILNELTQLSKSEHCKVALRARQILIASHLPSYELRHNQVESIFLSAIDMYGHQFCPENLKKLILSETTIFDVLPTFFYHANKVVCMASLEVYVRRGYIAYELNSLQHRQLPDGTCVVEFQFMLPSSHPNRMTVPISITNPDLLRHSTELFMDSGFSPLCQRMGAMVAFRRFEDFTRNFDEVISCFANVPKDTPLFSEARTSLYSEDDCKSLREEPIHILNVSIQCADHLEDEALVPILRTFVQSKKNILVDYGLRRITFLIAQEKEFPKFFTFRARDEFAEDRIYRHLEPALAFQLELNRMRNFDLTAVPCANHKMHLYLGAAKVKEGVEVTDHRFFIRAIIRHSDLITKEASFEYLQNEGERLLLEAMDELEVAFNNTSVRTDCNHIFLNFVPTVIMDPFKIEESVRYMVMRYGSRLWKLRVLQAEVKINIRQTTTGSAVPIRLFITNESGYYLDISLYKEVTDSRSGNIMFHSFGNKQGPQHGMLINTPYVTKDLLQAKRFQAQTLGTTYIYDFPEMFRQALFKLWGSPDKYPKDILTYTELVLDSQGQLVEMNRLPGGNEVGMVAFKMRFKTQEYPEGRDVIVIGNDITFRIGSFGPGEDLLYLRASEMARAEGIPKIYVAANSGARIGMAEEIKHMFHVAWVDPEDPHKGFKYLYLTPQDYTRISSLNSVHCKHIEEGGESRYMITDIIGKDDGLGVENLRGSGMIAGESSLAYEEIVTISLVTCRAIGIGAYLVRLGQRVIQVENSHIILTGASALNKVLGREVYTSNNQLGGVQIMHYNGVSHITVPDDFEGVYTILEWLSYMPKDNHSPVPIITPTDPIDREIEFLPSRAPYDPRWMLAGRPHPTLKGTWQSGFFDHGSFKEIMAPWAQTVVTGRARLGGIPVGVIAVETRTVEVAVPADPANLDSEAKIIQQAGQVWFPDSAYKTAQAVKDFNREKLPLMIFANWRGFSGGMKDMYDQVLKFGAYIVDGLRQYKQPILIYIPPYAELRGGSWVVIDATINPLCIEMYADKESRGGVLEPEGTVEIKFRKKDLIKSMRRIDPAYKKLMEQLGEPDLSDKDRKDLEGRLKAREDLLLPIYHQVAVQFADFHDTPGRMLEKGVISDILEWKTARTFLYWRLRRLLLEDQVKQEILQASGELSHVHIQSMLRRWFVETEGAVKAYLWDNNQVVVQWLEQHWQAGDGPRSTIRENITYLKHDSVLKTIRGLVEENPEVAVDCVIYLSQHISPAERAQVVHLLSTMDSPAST", "experiment": "Acetyl-CoA carboxylase enzyme assay (malonyl-CoA formation by LC/MS/MS)", "type": "biochemical", "details": "recombinant human ACC2 (aa 144-2458); read-out: IC50 ACC2", "outline": "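Malonyl-CoA formation was read by LC/MS/MS MRM against a [13C3]-malonyl-CoA internal standard, after acetic acid quench. The enzyme was baculovirus/Sf9-expressed human ACC2 residues 144–2458, given 15 minutes room-temperature compound preincubation in HEPES pH 7.5 buffer with MgCl2, citrate and DTT. Substrate solution held 50 μM acetyl-CoA, 120 μM ATP and 2 mM KHCO3.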", "values": [
      {"molecule": "C[C@@H](NC(=O)[C@H]1CC[C@H](NS(=O)(=O)c2ccc3c(c2)N(C)[C@H](C(=O)O)CC3)CC1)c1ccc(F)cc1", "note": "[Example 250, (S)-7-(N-((1R,4S)-4-((R)-1-(4-fluorophenyl)ethylcarbamoyl)cyclohexyl)sulfamoyl)-1-methyl-1,2,3,4-tetrahydroquinoline-2-carboxylic acid]", "pIC50": 6.23},
      {"molecule": "C[C@@H](NC(=O)[C@H]1CC[C@H](NS(=O)(=O)c2ccc3c(c2)N(C)[C@@H](C(=O)O)CC3)CC1)c1ccc(F)cc1", "note": "[Example 251, (R)-7-(N-((1R,4R)-4-((R)-1-(4-fluorophenyl)ethylcarbamoyl)cyclohexyl)sulfamoyl)-1-methyl-1,2,3,4-tetrahydroquinoline-2-carboxylic acid]", "pIC50": 7.46},
      {"molecule": "COC(=O)[C@H]1CC[C@H](NS(=O)(=O)c2ccc3nc(-c4cc(C)nc(C)c4)ccc3c2)CC1", "note": "[Example 252, (1r,4r)-methyl 4-(2-(2,6-dimethylpyridin-4-yl)quinoline-6-sulfonamido)cyclohexanecarboxylate]", "pIC50": "< 4.46"},
      {"molecule": "Cc1cc(-c2ccc3cc(S(=O)(=O)N[C@H]4CC[C@H](C(=O)NC(c5ccccc5)C(C)(C)O)CC4)ccc3n2)cc(C)n1", "note": "(some centres unmarked) [Example 253, (1r,4r)-4-(2-(2,6-dimethylpyridin-4-yl)quinoline-6-sulfonamido)-N-(2-hydroxy-2-methyl-1-phenylpropyl)cyclohexanecarboxamide]", "pIC50": 7.70},
      {"molecule": "Cc1cc(-c2ccc3cc(S(=O)(=O)N[C@H]4CC[C@H](C(=O)N5CCNCC5c5ccccc5)CC4)ccc3n2)cc(C)n1", "note": "(some centres unmarked) [Example 254, 2-(2,6-dimethylpyridin-4-yl)-N-((1r,4r)-4-(2-phenylpiperazine-1-carbonyl)cyclohexyl)quinoline-6-sulfonamide]", "pIC50": 7.70},
      {"molecule": "CC(C)(C)OC(=O)N1CCN(C(=O)[C@H]2CC[C@H](NS(=O)(=O)c3ccc4oc5ccccc5c4c3)CC2)[C@@H](c2ccccc2)C1", "note": "[Example 255, (S)-tert-butyl 4-((1r,4S)-4-(dibenzo[b,d]furan-2-sulfonamido)cyclohexanecarbonyl)-3-phenylpiperazine-1-carboxylate]", "pIC50": 7.82},
      {"molecule": "O=C([C@H]1CC[C@H](NS(=O)(=O)c2ccc3oc4ccccc4c3c2)CC1)N1CCNC[C@@H]1c1ccccc1", "note": "[Example 256, N-((1S,4r)-4-((S)-2-phenylpiperazine-1-carbonyl)cyclohexyl)dibenzo[b,d]furan-2-sulfonamide]", "pIC50": 7.70},
      {"molecule": "Cc1cc(-c2ccc3cc(S(=O)(=O)N[C@H]4CC[C@H](C(=O)N5CCNC[C@H]5c5ccccc5)CC4)ccc3n2)cc(C)n1", "note": "[Example 257, 2-(2,6-dimethylpyridin-4-yl)-N-((1R,4r)-4-((R)-2-phenylpiperazine-1-carbonyl)cyclohexyl)quinoline-6-sulfonamide]", "pIC50": 7.30},
      {"molecule": "CN1CCN(c2ccc3cc(S(=O)(=O)N[C@H]4CC[C@H](C(=O)N[C@H](c5ccccc5)C(C)(C)O)CC4)ccc3n2)CC1", "note": "[Example 258, (1r,4R)-N-((R)-2-hydroxy-2-methyl-1-phenylpropyl)-4-(2-(4-methylpiperazin-1-yl)quinoline-6-sulfonamido)cyclohexanecarboxamide]", "pIC50": 7.10},
      {"molecule": "CN1CCN(c2ccc3cc(S(=O)(=O)NC4CCC(C(=O)N5CCNCC5c5ccccc5)CC4)ccc3n2)CC1", "note": "(centres unmarked) [Example 259, 2-(4-methylpiperazin-1-yl)-N-((1r,4r)-4-(2-phenylpiperazine-1-carbonyl)cyclohexyl)quinoline-6-sulfonamide]", "pIC50": 6.35},
      {"molecule": "CC(C)[C@H]1COCCN1C(=O)[C@H]1CC[C@H](NS(=O)(=O)c2ccc3nc(N4CCN(C)CC4)ccc3c2)CC1", "note": "[Example 260, N-((1S,4r)-4-((S)-3-isopropylmorpholine-4-carbonyl)cyclohexyl)-2-(4-methylpiperazin-1-yl)quinoline-6-sulfonamide]", "pIC50": 5.53},
      {"molecule": "Cc1cc(-c2ccc3cc(S(=O)(=O)N[C@H]4CC[C@H](C(=O)N5CCOC[C@@H]5C(C)C)CC4)ccc3n2)cc(C)n1", "note": "[Example 261, 2-(2,6-dimethylpyridin-4-yl)-N-((1S,4r)-4-((S)-3-isopropylmorpholine-4-carbonyl)cyclohexyl)quinoline-6-sulfonamide]", "pIC50": 6.34},
      {"molecule": "C[C@@H](NC(=O)C12CC3CC(C1)C(NS(=O)(=O)c1cnc4c(c1)NCCN4)C(C3)C2)c1ccc(F)cc1", "note": "(stereo partly drawn) [Example 262, 4-(1,2,3,4-Tetrahydro-pyrido[2,3-b]pyrazine-7-sulfonylamino)-adamantane-1-carboxylic acid [(R)-1-(4-fluoro-phenyl)-ethyl]-amide]", "pIC50": 7.70},
      {"molecule": "CC(C)(C)OC(=O)N1CCN(C(=O)[C@H]2CC[C@H](NS(=O)(=O)c3ccc4c(c3)oc3ccccc34)CC2)[C@@H](c2ccccc2)C1", "note": "[Example 263, (S)-tert-butyl 4-((1r,4S)-4-(dibenzo[b,d]furan-3-sulfonamido)cyclohexanecarbonyl)-3-phenylpiperazine-1-carboxylate]", "pIC50": 7.52},
      {"molecule": "O=C([C@H]1CC[C@H](NS(=O)(=O)c2ccc3c(c2)oc2ccccc23)CC1)N1CCNC[C@@H]1c1ccccc1", "note": "[Example 264, N-((1S,4r)-4-((S)-2-phenylpiperazine-1-carbonyl)cyclohexyl)dibenzo[b,d]furan-3-sulfonamide]", "pIC50": 7.70},
      {"molecule": "COC(=O)C12CC3CC(C1)C(NS(=O)(=O)c1ccc4oc5ccccc5c4c1)C(C3)C2", "note": "(centres unmarked) [Example 265, 4-(Dibenzofuran-2-sulfonylamino)-adamantane-1-carboxylic acid methyl ester]", "pIC50": 6.16},
      {"molecule": "CCOc1ccc2cc(S(=O)(=O)N[C@H]3CC[C@H](C(=O)N[C@H](COC(=O)[C@@H](N)C(C)C)c4ccccc4)CC3)ccc2n1", "note": "[Example 266, (S)-((S)-2-((1r,4S)-4-(2-ethoxyquinoline-6-sulfonamido)cyclohexanecarboxamido)-2-phenylethyl) 2-amino-3-methylbutanoate]", "pIC50": 6.85},
      {"molecule": "COC(=O)[C@H]1CC[C@H](CNS(=O)(=O)c2ccc3oc4ccccc4c3c2)CC1", "note": "[Example 267, (1r,4r)-methyl 4-((dibenzo[b,d]furan-2-sulfonamido)methyl)cyclohexanecarboxylate]", "pIC50": "< 4.46"},
      {"molecule": "CCOc1ccc2cc(S(=O)(=O)N[C@H]3CC[C@H](C(=O)N[C@H](COP(=O)(OC(C)(C)C)OC(C)(C)C)c4ccccc4)CC3)ccc2n1", "note": "[Example 268, di-tert-butyl (S)-2-((1r,4S)-4-(2-ethoxyquinoline-6-sulfonamido)cyclohexanecarboxamido)-2-phenylethyl phosphate]", "pIC50": 6.36},
      {"molecule": "CCOc1ccc2cc(S(=O)(=O)N[C@H]3CC[C@H](C(=O)N[C@H](COP(=O)(O)O)c4ccccc4)CC3)ccc2n1", "note": "[Example 269, (S)-2-((1r,4S)-4-(2-ethoxyquinoline-6-sulfonamido)cyclohexanecarboxamido)-2-phenylethyl dihydrogen phosphate]", "pIC50": 4.60},
      {"molecule": "C[C@@H](NC(=O)C12CCC(NS(=O)(=O)c3cnc4c(c3)NCCN4)(CC1)CC2)c1ccc(F)cc1", "note": "[Example 270, (R)-N-(1-(4-fluorophenyl)ethyl)-4-(1,2,3,4-tetrahydropyrido[3,2-b]pyrazine-7-sulfonamido)bicyclo[2.2.2]octane-1-carboxamide]", "pIC50": 6.78},
      {"molecule": "CCOc1ccc2cc(S(=O)(=O)NC3CCC(C(=O)NC(c4ccccc4)C(C)OC(=O)C(N)C(C)C)CC3)ccc2n1", "note": "[Example 271, (S)-((1S,2S)-1-((1r,4S)-1-((1r,4S)-4-(2-ethoxyquinoline-6-sulfonamido)cyclohexanecarboxamido)-1-phenylpropan-2-yl) 2-amino-3-methylbutanoate]", "pIC50": 6.71},
      {"molecule": "CCOc1ccc2cc(S(=O)(=O)N[C@H]3CC[C@H](C(=O)N[C@H](COC(=O)[C@@H](N)Cc4ccccc4)c4ccccc4)CC3)ccc2n1", "note": "[Example 273, (S)-((S)-2-((1r,4S)-4-(2-ethoxyquinoline-6-sulfonamido)cyclohexanecarboxamido)-2-phenylethyl) 2-amino-3-phenylpropanoate]", "pIC50": 7.41},
      {"molecule": "O=C(N[C@@H](c1ccccc1)C(F)(F)F)[C@H]1CC[C@H](NS(=O)(=O)c2ccc3[nH]c(-c4ccccc4)nc3c2)CC1", "note": "[Example 274, (1r,4S)-4-(2-phenyl-1H-benzo[d]imidazole-5-sulfonamido)-N-((S)-2,2,2-trifluoro-1-phenylethyl)cyclohexanecarboxamide]", "pIC50": 5.40},
      {"molecule": "COC(=O)c1ccc(-c2nc3cc(S(=O)(=O)N[C@H]4CC[C@H](C(=O)N[C@H](C)c5ccccc5)CC4)ccc3[nH]2)cc1", "note": "[Example 275, methyl 4-(5-(N-((1R,4r)-4-((R)-1-phenylethylcarbamoyl)cyclohexyl)sulfamoyl)-1H-benzo[d]imidazol-2-yl)benzoate]", "pIC50": 7.74},
      {"molecule": "C[C@@H](NC(=O)[C@H]1CC[C@H](NS(=O)(=O)c2ccc3[nH]c(-c4ccc(F)cc4)nc3c2)CC1)c1ccccc1", "note": "[Example 276, (1r,4R)-4-(2-(4-fluorophenyl)-1H-benzo[d]imidazole-5-sulfonamido)-N-((R)-1-phenylethyl)cyclohexanecarboxamide]", "pIC50": "> 8.00"},
      {"molecule": "C[C@@H](NC(=O)[C@H]1CC[C@H](NS(=O)(=O)c2ccc3[nH]c(C4CC4)nc3c2)CC1)c1ccccc1", "note": "[Example 277, (1r,4R)-4-(2-cyclopropyl-1H-benzo[d]imidazole-5-sulfonamido)-N-((R)-1-phenylethyl)cyclohexanecarboxamide]", "pIC50": 7.10},
      {"molecule": "C[C@@H](NC(=O)[C@H]1CC[C@H](NS(=O)(=O)c2ccc3[nH]c(-c4ccc(C(=O)O)cc4)nc3c2)CC1)c1ccccc1", "note": "[Example 278, 4-(5-(N-((1R,4r)-4-((R)-1-phenylethylcarbamoyl)cyclohexyl)sulfamoyl)-1H-benzo[d]imidazol-2-yl)benzoic acid]", "pIC50": 7.18},
      {"molecule": "C[C@@H](NC(=O)[C@H]1CC[C@H](NS(=O)(=O)c2ccc3[nH]c(-c4cccc(C(=O)O)c4)nc3c2)CC1)c1ccccc1", "note": "[Example 279, 3-(5-(N-((1R,4r)-4-((R)-1-phenylethylcarbamoyl)cyclohexyl)sulfamoyl)-1H-benzo[d]imidazol-2-yl)benzoic acid]", "pIC50": 7.00}
    ]}
  ]
}
